Consider nine molecules from US8232273B2, “Heterocyclic compounds and methods of use” (Genentech, Inc., priority 2008, dated 2012).

Experiment [1] concerns the target T1, Bcl-xL (GST-Bcl-xL) (Homo sapiens, UniProt Q07817). The experiment in a line: TR-FRET binding assay, competition with F-Bak for the Bcl-xL binding site. The note with it: values listed in the order of Table 1, read-out: TR-FRET assay results (Ki), Bcl-xL. On the technique in general: Time-resolved FRET reads energy transfer from a long-lived donor to a nearby acceptor.

A further experiment concerns platelets. Put plainly: Cell viability assay for platelets (platelet rich plasma, CellTiter-Glo). The experiment is classed as cell-based. The note with it: approximately 4 hours at 37 C. On the procedure:
Platelet rich plasma (PRP) was incubated with a compound of the invention for approximately 4 hours at 37° C. After incubation, platelets were equilibrated to room temperature for 20 minutes and then and equal volume of CELL TITER-GLO™ reagent (Promega Corporation) was added. Samples were mixed for two minutes and then allowed to equilibrate for an additional 10 minutes at room temperature. The luminescence generated from the samples was quantitated using a LJL Analyst plate reader. Data analysis was performed using GraphPad Prism 4.0.

Experiment [2] has as its target T1, Bcl-xL (GST-Bcl-xL). The experiment in a line: AlphaScreen Bcl-xL binding assay, competition with biotinylated Bim peptide. Also noted: made in house. To be noted: values listed in the order of Table 1; read-out: Alphascreen results (IC50) against the Bcl-xL protein. The gist of the method: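 Acceptor beads with GST-Bcl-xL were combined with donor beads carrying biotinylated Bim peptide after each bead mix was preincubated 30 min at room temperature. Compounds in DMSO, 2-fold serially diluted, were incubated 30 min at room temperature before donor addition, with duplicate plates. Percent inhibition was taken against no-protein and DMSO controls, and IC50 was calculated.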

T1 sequence (Q07817 whole entry, species assumed): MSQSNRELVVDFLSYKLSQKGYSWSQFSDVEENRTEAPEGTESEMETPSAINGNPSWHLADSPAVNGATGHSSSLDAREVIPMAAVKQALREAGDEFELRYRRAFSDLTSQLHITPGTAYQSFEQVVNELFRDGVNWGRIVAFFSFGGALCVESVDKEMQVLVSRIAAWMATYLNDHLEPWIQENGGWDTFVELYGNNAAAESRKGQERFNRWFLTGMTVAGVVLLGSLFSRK

With `CN(C)CCCNc1ncnc2c1cnn2-c1ccc(OCCCc2sc(N3CCc4cccc(C(=O)Nc5nc6ccccc6s5)c4C3)nc2C(=O)O)cc1` [Example 54, 2-(8-(benzo[d]thiazol-2-ylcarbamoyl)-3,4-dihydroisoquinolin-2(1H)-yl)-5-(3-(4-(4-(3-(dimethylamino)propylamino)-1H-pyrazolo[3,4-d]pyrimidin-1-yl)phenoxy)propyl)thiazole-4-carboxylic acid], the Ki at Bcl-xL (GST-Bcl-xL) [1] came to 0.05 nM. Also, the half-maximal effective concentration (EC50) with platelets is 132 nM.
Consider `CN(C)CCOc1ccc(OCCCc2sc(N3CCc4cccc(C(=O)Nc5nc6ccccc6s5)c4C3)nc2C(=O)O)cc1` [Example 75, 2-[8-(Benzothiazol-2-ylcarbamoyl)-3,4-dihydro-1H-isoquinolin-2-yl]-5-{3-[4-(2-dimethylamino-ethoxy)-phenoxy]-propyl}-thiazole-4-carboxylic acid], for which the Ki on Bcl-xL (GST-Bcl-xL) [1] worked out at 0.05 nM. Moreover, on Bcl-xL (GST-Bcl-xL) [2], the IC50 was determined as 0.1 nM. It took 9 nM to reach a half-maximal effect in the experiment on platelets (EC50).
Turning to `O=C(Nc1nc2ccccc2s1)c1cccc2c1CN(c1nc(C(=O)O)c(CCCOc3ccc(-c4csc5c(NCCCN6CCCC6)ncnc45)cc3)s1)CC2` [Example 78, 2-[8-(Benzothiazol-2-ylcarbamoyl)-3,4-dihydro-1H-isoquinolin-2-yl]-5-(3-{4-[4-(3-pyrrolidin-1-yl-propylamino)-thieno[3,2-d]pyrimidin-7-yl]-phenoxy}-propyl)-thiazole-4-carboxylic acid], the Ki at Bcl-xL (GST-Bcl-xL) [1] was determined as 0.05 nM. In the experiment on platelets, this molecule came in with an EC50 of 3 nM.
As for `CN1CCN(c2ncnc3c(-c4ccc(OCCCc5sc(N6CCc7cccc(C(=O)Nc8nc9ccccc9s8)c7C6)nc5C(=O)O)cc4)csc23)CC1` [Example 79, 2-[8-(Benzothiazol-2-ylcarbamoyl)-3,4-dihydro-1H-isoquinolin-2-yl]-5-(3-{4-[4-(4-methyl-piperazin-1-yl)-thieno[3,2-d]pyrimidin-7]-phenoxy}-propyl)-thiazole-4-carboxylic acid], the Ki on Bcl-xL (GST-Bcl-xL) [1] worked out at 0.1 nM. In addition, the EC50 in the experiment with platelets was 3 nM.
In the same order, the values of `N#Cc1nccnc1-c1ccc(OCCCc2sc(N3CCc4cccc(C(=O)Nc5nc6ccccc6s5)c4C3)nc2C(=O)O)cc1` [Example 86, 2-[8-(Benzothiazol-2-ylcarbamoyl)-3,4-dihydro-1H-isoquinolin-2-yl]-5-{3-[4-(3-cyano-pyrazin-2-yl)-phenoxy]-propyl}-thiazole-4-carboxylic acid] are 0.07 nM and 10 nM.
On to `CN1CCN(c2cccc(OCCCc3sc(N4CCc5cccc(C(=O)Nc6nc7ccccc7s6)c5C4)nc3C(=O)O)c2)CC1` [Example 87, 2-[8-(Benzothiazol-2-ylcarbamoyl)-3,4-dihydro-1H-isoquinolin-2-yl]-5-{3-[3-(4-methyl-piperazin-1-yl)-phenoxy]-propyl}-thiazole-4-carboxylic acid], for which, at Bcl-xL (GST-Bcl-xL) [1], the Ki was determined as 0.05 nM. This molecule displayed an EC50 in the experiment with platelets of 3 nM.
For `CN(C)CCOc1ccc(-c2ccc(OCCCc3sc(N4CCc5cccc(C(=O)Nc6nc7ccccc7s6)c5C4)nc3C(=O)O)cc2)nc1` [Example 90, 2-[8-(Benzothiazol-2-ylcarbamoyl)-3,4-dihydro-1H-isoquinolin-2-yl]-5-(3-{4-[5-(2-dimethylamino-ethoxy)-pyridin-2-yl]-phenoxy}-propyl)-thiazole-4-carboxylic acid], in that order: 0.05 nM and 3 nM.
`CN(C)CCOc1ccc(-c2ccc(OCCCc3ccc(N4CCc5cccc(C(=O)Nc6nc7ccccc7s6)c5C4)nc3C(=O)O)cc2)nc1` [Example 95, 6-[8-(Benzothiazol-2-ylcarbamoyl)-3,4-dihydro-1H-isoquinolin-2-yl]-3-(3-{4-[5-(2-dimethylamino-ethoxy)-pyridin-2-yl]-phenoxy}-propyl)-pyridine-2-carboxylic acid]: on Bcl-xL (GST-Bcl-xL) [1], the Ki was 0.05 nM. The midpoint of the response in the experiment with platelets, the EC50, lay at 3 nM.
With `O=C(Nc1nc2ccccc2s1)c1cccc2c1CN(c1ccc(CCCOc3ccc(-c4ncccn4)cc3)c(C(=O)O)n1)CC2` [Example 96, 6-[8-(Benzothiazol-2-ylcarbamoyl)-3,4-dihydro-1H-isoquinolin-2-yl]-3-[3-(4-pyrimidin-2-yl-phenoxy)-propyl]-pyridine-2-carboxylic acid], on Bcl-xL (GST-Bcl-xL) [1], the Ki worked out at 0.1 nM. Also, in the experiment on platelets, the EC50 worked out at 354 nM.

As a reminder, the Ki is a dissociation constant, usually derived from enzyme kinetics or from competition with a known ligand. One may read the EC50 as the concentration that produces a half-maximal response. Broadly, the IC50 is the point on the concentration scale where inhibition reaches its midpoint.
